{"source": "BindingDB's records for doi:10.1021/jm7012858", "about": "(Wyeth Research, 2008)"}
{"biological_target": "Phosphatidylinositol 3-kinase regulatory subunit alpha/4,5-bisphosphate 3-kinase catalytic subunit alpha isoform (Homo sapiens, UniProt P42336)", "sequence (P27986 whole entry, canonical isoform)": "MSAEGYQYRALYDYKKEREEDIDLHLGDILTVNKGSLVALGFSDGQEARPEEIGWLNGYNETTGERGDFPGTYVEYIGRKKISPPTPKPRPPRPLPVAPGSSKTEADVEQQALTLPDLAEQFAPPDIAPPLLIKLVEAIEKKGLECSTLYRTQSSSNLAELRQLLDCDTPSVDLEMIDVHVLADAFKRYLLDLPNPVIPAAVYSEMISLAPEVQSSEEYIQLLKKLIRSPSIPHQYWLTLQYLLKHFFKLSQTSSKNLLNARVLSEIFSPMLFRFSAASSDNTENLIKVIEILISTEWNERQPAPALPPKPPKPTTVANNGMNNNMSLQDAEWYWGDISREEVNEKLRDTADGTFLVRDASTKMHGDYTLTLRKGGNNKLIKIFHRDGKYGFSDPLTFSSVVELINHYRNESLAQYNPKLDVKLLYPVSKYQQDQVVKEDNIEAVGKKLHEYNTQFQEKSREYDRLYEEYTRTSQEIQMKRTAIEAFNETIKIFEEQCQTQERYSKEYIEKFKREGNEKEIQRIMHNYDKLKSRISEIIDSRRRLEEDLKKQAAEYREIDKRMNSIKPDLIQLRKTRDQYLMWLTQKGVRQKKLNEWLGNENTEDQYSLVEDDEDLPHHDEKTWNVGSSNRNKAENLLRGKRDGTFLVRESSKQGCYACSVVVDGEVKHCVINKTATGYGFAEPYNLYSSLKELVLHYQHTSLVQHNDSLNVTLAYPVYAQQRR", "sequence (P42336 whole entry, canonical isoform)": "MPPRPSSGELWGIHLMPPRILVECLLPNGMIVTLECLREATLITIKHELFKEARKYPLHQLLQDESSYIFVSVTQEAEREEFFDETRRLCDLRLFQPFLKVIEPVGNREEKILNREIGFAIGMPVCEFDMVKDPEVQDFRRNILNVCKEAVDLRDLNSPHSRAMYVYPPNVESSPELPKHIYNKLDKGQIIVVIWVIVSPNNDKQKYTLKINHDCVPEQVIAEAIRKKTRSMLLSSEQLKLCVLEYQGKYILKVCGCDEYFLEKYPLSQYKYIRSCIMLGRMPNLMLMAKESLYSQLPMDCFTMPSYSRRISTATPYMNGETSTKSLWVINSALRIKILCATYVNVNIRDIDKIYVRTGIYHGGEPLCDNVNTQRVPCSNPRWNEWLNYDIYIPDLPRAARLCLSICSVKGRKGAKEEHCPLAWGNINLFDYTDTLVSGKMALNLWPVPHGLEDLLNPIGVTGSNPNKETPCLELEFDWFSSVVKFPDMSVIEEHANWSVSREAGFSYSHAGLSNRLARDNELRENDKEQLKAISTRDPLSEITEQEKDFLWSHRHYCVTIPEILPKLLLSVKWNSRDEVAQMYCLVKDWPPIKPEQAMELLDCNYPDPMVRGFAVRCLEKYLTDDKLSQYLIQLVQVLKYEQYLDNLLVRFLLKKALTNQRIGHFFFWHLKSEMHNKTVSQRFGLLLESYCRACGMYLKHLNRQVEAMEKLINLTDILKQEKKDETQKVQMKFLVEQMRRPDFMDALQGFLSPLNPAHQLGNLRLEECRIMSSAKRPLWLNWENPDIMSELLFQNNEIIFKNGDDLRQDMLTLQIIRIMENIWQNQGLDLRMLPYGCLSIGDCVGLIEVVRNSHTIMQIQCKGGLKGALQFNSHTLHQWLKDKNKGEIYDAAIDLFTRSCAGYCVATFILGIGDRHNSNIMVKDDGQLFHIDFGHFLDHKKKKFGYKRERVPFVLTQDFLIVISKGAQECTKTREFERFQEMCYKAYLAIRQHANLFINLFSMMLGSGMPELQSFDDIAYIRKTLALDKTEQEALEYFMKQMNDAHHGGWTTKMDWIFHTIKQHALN", "assay": "PI3K Inhibition Assay", "settings": "not given", "protocol": "(§1) Inhibition of PI3K enzyme activity is measured in a microtiter plate-based fluorescence polarization (FP) assay.", "units": {"IC50": "nM"}}
{"compound": "COC[C@H]1OC(=O)C(=CN2CCC(C(=O)O)CC2)C2C(=O)C(=O)C3=C([C@H](OC(C)=O)C[C@@]4(C)C3CC[C@@H]4O)[C@]21C", "note": "(stereo partly drawn) [1-{[(2R,3S,6E,14S,15S,17R)-17-(acetyloxy)-8,14-dihydroxy-3-(methoxymethyl)-2,15-dimethyl-5,9-dioxo-4-oxatetracyclo[8.7.0.0^{2,7}.0^{11,15}]heptadeca-1(10),7-dien-6-ylidene]methyl}piperidine-4-carboxylic acid]", "IC50": 33}
{"compound": "COC[C@H]1OC(=O)C(=CN(C)CCCC(=O)O)C2C(=O)C(=O)C3=C([C@H](OC(C)=O)C[C@@]4(C)C3CC[C@@H]4O)[C@]21C", "note": "(stereo partly drawn) [4-({[(2R,3S,6E,14S,15S,17R)-17-(acetyloxy)-8,14-dihydroxy-3-(methoxymethyl)-2,15-dimethyl-5,9-dioxo-4-oxatetracyclo[8.7.0.0^{2,7}.0^{11,15}]heptadeca-1(10),7-dien-6-ylidene]methyl}(methyl)amino)butanoic acid]", "IC50": 193}
{"compound": "COC[C@H]1OC(=O)C(=CN2CCN(CCCN(C)C)CC2)C2C(=O)C(=O)C3=C([C@H](OC(C)=O)C[C@@]4(C)C3CC[C@@H]4O)[C@]21C", "note": "(stereo partly drawn) [(2R,3S,6E,14S,15S,17R)-6-({4-[3-(dimethylamino)propyl]piperazin-1-yl}methylidene)-8,14-dihydroxy-3-(methoxymethyl)-2,15-dimethyl-5,9-dioxo-4-oxatetracyclo[8.7.0.0^{2,7}.0^{11,15}]heptadeca-1(10),7-dien-17-yl acetate]", "IC50": 38}
{"compound": "CCN(C=C1C(=O)O[C@H](COC)[C@]2(C)C3=C(C(=O)C(=O)C12)C1CC[C@H](O)[C@@]1(C)C[C@H]3OC(C)=O)CCN(CC)CC", "note": "(stereo partly drawn) [(2R,3S,6E,14S,15S,17R)-6-({[2-(diethylamino)ethyl](ethyl)amino}methylidene)-8,14-dihydroxy-3-(methoxymethyl)-2,15-dimethyl-5,9-dioxo-4-oxatetracyclo[8.7.0.0^{2,7}.0^{11,15}]heptadeca-1(10),7-dien-17-yl acetate]", "IC50": 24}
{"compound": "CCN(CC)CCN(C)C=C1C(=O)O[C@H](COC)[C@]2(C)C3=C(C(=O)C(=O)C12)C1CC[C@H](O)[C@@]1(C)C[C@H]3OC(C)=O", "note": "(stereo partly drawn) [(2R,3S,6E,14S,15S,17R)-6-({[2-(diethylamino)ethyl](methyl)amino}methylidene)-8,14-dihydroxy-3-(methoxymethyl)-2,15-dimethyl-5,9-dioxo-4-oxatetracyclo[8.7.0.0^{2,7}.0^{11,15}]heptadeca-1(10),7-dien-17-yl acetate]", "IC50": 50}
{"compound": "CCN(C=C1C(=O)O[C@H](COC)[C@]2(C)C3=C(C(=O)C(=O)C12)C1CC[C@H](O)[C@@]1(C)C[C@H]3OC(C)=O)CCN(C)C", "note": "(stereo partly drawn) [(2R,3S,6E,14S,15S,17R)-6-({[2-(dimethylamino)ethyl](ethyl)amino}methylidene)-8,14-dihydroxy-3-(methoxymethyl)-2,15-dimethyl-5,9-dioxo-4-oxatetracyclo[8.7.0.0^{2,7}.0^{11,15}]heptadeca-1(10),7-dien-17-yl acetate]", "IC50": 5}
{"compound": "COC[C@H]1OC(=O)C(=CN(C)CCN(C)C)C2C(=O)C(=O)C3=C([C@H](OC(C)=O)C[C@@]4(C)C3CC[C@@H]4O)[C@]21C", "note": "(stereo partly drawn) [(2R,3S,6E,14S,15S,17R)-6-({[2-(dimethylamino)ethyl](methyl)amino}methylidene)-8,14-dihydroxy-3-(methoxymethyl)-2,15-dimethyl-5,9-dioxo-4-oxatetracyclo[8.7.0.0^{2,7}.0^{11,15}]heptadeca-1(10),7-dien-17-yl acetate]", "IC50": 8.4}
{"compound": "CCN(C=C1C(=O)O[C@H](COC)[C@]2(C)C3=C(C(=O)C(=O)C12)C1CC[C@H](O)[C@@]1(C)C[C@H]3OC(C)=O)CCCN(C)C", "note": "(stereo partly drawn) [(2R,3S,6E,14S,15S,17R)-6-({[3-(dimethylamino)propyl](ethyl)amino}methylidene)-8,14-dihydroxy-3-(methoxymethyl)-2,15-dimethyl-5,9-dioxo-4-oxatetracyclo[8.7.0.0^{2,7}.0^{11,15}]heptadeca-1(10),7-dien-17-yl acetate]", "IC50": 12}
{"compound": "COC[C@H]1OC(=O)C(=CN(CCCN(C)C)CCCN(C)C)C2C(=O)C(=O)C3=C([C@H](OC(C)=O)C[C@@]4(C)C3CC[C@@H]4O)[C@]21C", "note": "(stereo partly drawn) [(2R,3S,6E,14S,15S,17R)-6-({bis[3-(dimethylamino)propyl]amino}methylidene)-8,14-dihydroxy-3-(methoxymethyl)-2,15-dimethyl-5,9-dioxo-4-oxatetracyclo[8.7.0.0^{2,7}.0^{11,15}]heptadeca-1(10),7-dien-17-yl acetate]", "IC50": 22}
{"compound": "COC[C@H]1OC(=O)C(=CN2CCN(Cc3ccccc3)CC2)C2C(=O)C(=O)C3=C([C@H](OC(C)=O)C[C@@]4(C)C3CC[C@@H]4O)[C@]21C", "note": "(stereo partly drawn) [(2R,3S,6E,14S,15S,17R)-6-[(4-benzylpiperazin-1-yl)methylidene]-8,14-dihydroxy-3-(methoxymethyl)-2,15-dimethyl-5,9-dioxo-4-oxatetracyclo[8.7.0.0^{2,7}.0^{11,15}]heptadeca-1(10),7-dien-17-yl acetate]", "IC50": 87}
{"compound": "COC[C@H]1OC(=O)C(=CN2CCN(C3CCCCC3)CC2)C2C(=O)C(=O)C3=C([C@H](OC(C)=O)C[C@@]4(C)C3CC[C@@H]4O)[C@]21C", "note": "(stereo partly drawn) [(2R,3S,6E,14S,15S,17R)-6-[(4-cyclohexylpiperazin-1-yl)methylidene]-8,14-dihydroxy-3-(methoxymethyl)-2,15-dimethyl-5,9-dioxo-4-oxatetracyclo[8.7.0.0^{2,7}.0^{11,15}]heptadeca-1(10),7-dien-17-yl acetate]", "IC50": 43}
{"compound": "COC[C@H]1OC(=O)C(=CN(C)CC(O)CO)C2C(=O)C(=O)C3=C([C@H](OC(C)=O)C[C@@]4(C)C3CC[C@@H]4O)[C@]21C", "note": "(stereo partly drawn) [(2R,3S,6E,14S,15S,17R)-6-{[(2,3-dihydroxypropyl)(methyl)amino]methylidene}-8,14-dihydroxy-3-(methoxymethyl)-2,15-dimethyl-5,9-dioxo-4-oxatetracyclo[8.7.0.0^{2,7}.0^{11,15}]heptadeca-1(10),7-dien-17-yl acetate]", "IC50": 199}
{"compound": "COC[C@H]1OC(=O)C(=CN(CCC#N)Cc2ccccc2)C2C(=O)C(=O)C3=C([C@H](OC(C)=O)C[C@@]4(C)C3CC[C@@H]4O)[C@]21C", "note": "(stereo partly drawn) [(2R,3S,6E,14S,15S,17R)-6-{[benzyl(2-cyanoethyl)amino]methylidene}-8,14-dihydroxy-3-(methoxymethyl)-2,15-dimethyl-5,9-dioxo-4-oxatetracyclo[8.7.0.0^{2,7}.0^{11,15}]heptadeca-1(10),7-dien-17-yl acetate]", "IC50": 444}
{"compound": "COC[C@H]1OC(=O)C(=CN(CCO)CCO)C2C(=O)C(=O)C3=C([C@H](OC(C)=O)C[C@@]4(C)C3CC[C@@H]4O)[C@]21C", "note": "(stereo partly drawn) [(2R,3S,6E,14S,15S,17R)-6-{[bis(2-hydroxyethyl)amino]methylidene}-8,14-dihydroxy-3-(methoxymethyl)-2,15-dimethyl-5,9-dioxo-4-oxatetracyclo[8.7.0.0^{2,7}.0^{11,15}]heptadeca-1(10),7-dien-17-yl acetate]", "IC50": 918}
{"compound": "COC[C@H]1OC(=O)C(=CN2CCCCC2)C2C(=O)C(=O)C3=C([C@H](OC(C)=O)C[C@@]4(C)C3CC[C@@H]4O)[C@]21C", "note": "(stereo partly drawn) [(2R,3S,6E,14S,15S,17R)-8,14-dihydroxy-3-(methoxymethyl)-2,15-dimethyl-5,9-dioxo-6-(piperidin-1-ylmethylidene)-4-oxatetracyclo[8.7.0.0^{2,7}.0^{11,15}]heptadeca-1(10),7-dien-17-yl acetate]", "IC50": 104}
{"compound": "COC[C@H]1OC(=O)C(=CN2CCC(=O)CC2)C2C(=O)C(=O)C3=C([C@H](OC(C)=O)C[C@@]4(C)C3CC[C@@H]4O)[C@]21C", "note": "(stereo partly drawn) [(2R,3S,6E,14S,15S,17R)-8,14-dihydroxy-3-(methoxymethyl)-2,15-dimethyl-5,9-dioxo-6-[(4-oxopiperidin-1-yl)methylidene]-4-oxatetracyclo[8.7.0.0^{2,7}.0^{11,15}]heptadeca-1(10),7-dien-17-yl acetate]", "IC50": 60}
{"compound": "COC[C@H]1OC(=O)C(=CN2CCN(c3ccccc3)CC2)C2C(=O)C(=O)C3=C([C@H](OC(C)=O)C[C@@]4(C)C3CC[C@@H]4O)[C@]21C", "note": "(stereo partly drawn) [(2R,3S,6E,14S,15S,17R)-8,14-dihydroxy-3-(methoxymethyl)-2,15-dimethyl-5,9-dioxo-6-[(4-phenylpiperazin-1-yl)methylidene]-4-oxatetracyclo[8.7.0.0^{2,7}.0^{11,15}]heptadeca-1(10),7-dien-17-yl acetate]", "IC50": 56}
{"compound": "COC[C@H]1OC(=O)C(=CN2CCC(c3ccccc3)CC2)C2C(=O)C(=O)C3=C([C@H](OC(C)=O)C[C@@]4(C)C3CC[C@@H]4O)[C@]21C", "note": "(stereo partly drawn) [(2R,3S,6E,14S,15S,17R)-8,14-dihydroxy-3-(methoxymethyl)-2,15-dimethyl-5,9-dioxo-6-[(4-phenylpiperidin-1-yl)methylidene]-4-oxatetracyclo[8.7.0.0^{2,7}.0^{11,15}]heptadeca-1(10),7-dien-17-yl acetate]", "IC50": 172}
{"compound": "COC[C@H]1OC(=O)C(=CN2CCC(N3CCCCC3)CC2)C2C(=O)C(=O)C3=C([C@H](OC(C)=O)C[C@@]4(C)C3CC[C@@H]4O)[C@]21C", "note": "(stereo partly drawn) [(2R,3S,6E,14S,15S,17R)-8,14-dihydroxy-3-(methoxymethyl)-2,15-dimethyl-5,9-dioxo-6-{[4-(piperidin-1-yl)piperidin-1-yl]methylidene}-4-oxatetracyclo[8.7.0.0^{2,7}.0^{11,15}]heptadeca-1(10),7-dien-17-yl acetate]", "IC50": 63}
{"compound": "COC[C@H]1OC(=O)C(=CN2CCOCC2)C2C(=O)C(=O)C3=C([C@H](OC(C)=O)C[C@@]4(C)C3CC[C@@H]4O)[C@]21C", "note": "(stereo partly drawn) [(2R,3S,6E,14S,15S,17R)-8,14-dihydroxy-3-(methoxymethyl)-2,15-dimethyl-6-(morpholin-4-ylmethylidene)-5,9-dioxo-4-oxatetracyclo[8.7.0.0^{2,7}.0^{11,15}]heptadeca-1(10),7-dien-17-yl acetate]", "IC50": 37}
{"biological_target": "Phosphatidylinositol 3-kinase regulatory subunit alpha/4,5-bisphosphate 3-kinase catalytic subunit alpha isoform (Homo sapiens, UniProt P42336)", "assay": "PI3K Inhibition Assay", "settings": "pH 7.5; 22 °C", "protocol": "as §1", "units": {"IC50": "nM"}}
{"compound": "COC[C@H]1OC(=O)c2coc3c2[C@@]1(C)C1=C(C3=O)C2CC[C@H](O)[C@@]2(C)C[C@H]1OC(C)=O", "note": "(stereo partly drawn) [(1R,3R,5S,6S,18S)-6-hydroxy-18-(methoxymethyl)-1,5-dimethyl-11,16-dioxo-13,17-dioxapentacyclo[10.6.1.0^{2,10}.0^{5,9}.0^{15,19}]nonadeca-2(10),12(19),14-trien-3-yl acetate]", "IC50": 2.7}
